These are literature values, as cited in patent US6770262B2, “Nasal administration of agents for the treatment of gastroparesis” (priority 2000, dated 2004).

Structures are written as SMILES. Read-outs that look alike come from different tables or passages of the source.

The conditions of the data set: for onset of action: injection form.

As for `CCN(CC)CCNC(=O)c1cc(Cl)c(N)cc1OC` [Metoclopramide], the “time of peak plasma concentrations” value (after a single oral dose) was 1 to 2 h. Further, the onset of action runs as follows: (intramuscular administration) 10 to 15 min; (intravenous administration) 1 to 3 min.
